Values after ≈ are worked out from the molar mass of the structure shown.
Columns and labels:
Assay in all cases: microbe, parasite or virus in culture
[1] = test system: Enterobacter cloacae
Description: Minimum inhibitory concentration in Enterobacter cloacae, P99- inducible type 1 lactamase producer

[2] = test system: Staphylococcus aureus
Description: The compound was tested for minimum inhibitory concentration in Staphylococcus aureus,147N penicillin sensitive Staphylococcus aureus

[3] = test system: Providencia stuartii
Description: Minimum inhibitory concentration in Pseudomonas stuartii, I+442019 inducible type 1 lactamase producer

[4] = test system: Escherichia coli
Description: In vitro minimum inhibitory concentration against Escherichia coli (DC2 permeability mutant).

[5] = test system: Pseudomonas aeruginosa
Description: Minimum inhibitory concentration in Pseudomonas aeruginosa,799WT parent organism

[6] = test system: Pseudomonas aeruginosa; remark: listed apart in the source
Description: In vitro minimum inhibitory concentration against Pseudomonas aeruginosa (PU21).

[7] = test system: Pseudomonas aeruginosa; remark: listed apart in the source
Description: Minimum inhibitory concentration in Pseudomonas aeruginosa,799/61 permeability mutant

[8] = test system: Citrobacter freundii
Description: Minimum inhibitory concentration in Citrobacter freundii, I+382010 inducible type 1 lactamase producer

[9] = test system: Enterobacter cloacae; remark: listed apart in the source
Description: Minimum inhibitory concentration in Enterobacter cloacae, DR 401108 constitutive depressed type 1 lactamase producer

[10] = test system: Enterobacter cloacae; remark: listed apart in the source
Description: Minimum inhibitory concentration in Enterobacter cloacae, P99+ constitutive depressed type 1 lactamase producer

[11] = test system: Staphylococcus aureus; remark: listed apart in the source
Description: The compound was tested for minimum inhibitory concentration in Staphylococcus aureus Oxford penicillin sensitive Staphylococcus aureus

[12] = test system: Pseudomonas aeruginosa; remark: listed apart in the source
Description: Minimum inhibitory concentration in Pseudomonas aeruginosa, 18S inducible type 1 lactamase producer

[13] = test system: Providencia stuartii; remark: listed apart in the source
Description: Minimum inhibitory concentration in Pseudomonas stuartii, DR 442049 constitutive depressed type 1 lactamase producer

[14] = test system: Enterobacter cloacae; remark: listed apart in the source
Description: Minimum inhibitory concentration in Enterobacter cloacae, I+401029 inducible type 1 lactamase producer

[15] = test system: Escherichia coli; remark: listed apart in the source
Description: In vitro minimum inhibitory concentration against Escherichia coli (DC0 parent organism).

[16] = test system: Pseudomonas aeruginosa; remark: listed apart in the source
Description: Minimum inhibitory concentration in Pseudomonas aeruginosa, 18SH constitutive depressed type 1 lactamase producer

[17] = test system: Citrobacter freundii; remark: listed apart in the source
Description: Minimum inhibitory concentration in Citrobacter freundii, DR 382031 constitutive depressed type 1

Compound: CC(C)(O/N=C(\C(=O)N[C@@H]1C(=O)N2C(C(=O)O)=C(CCNC(=O)Nc3ccc(O)c(O)c3)CSC12)c1csc(N)n1)C(=O)O (some centres undefined)
- MIC [1]: 1 µg/mL (≈ 1.54 µM)
- MIC [2]: 64 µg/mL (≈ 98.5 µM)
- MIC [3]: 2 µg/mL (≈ 3.08 µM)
- MIC [4]: 0.015 µg/mL (≈ 0.0231 µM)
- MIC [5]: 0.125 µg/mL (≈ 0.192 µM)
- MIC [6]: 0.125 µg/mL (≈ 0.192 µM)
- MIC [7]: 0.125 µg/mL (≈ 0.192 µM)
- MIC [8]: 0.25 µg/mL (≈ 0.385 µM)
- MIC [9]: 64 µg/mL (≈ 98.5 µM)
- MIC [10]: 16 µg/mL (≈ 24.6 µM)
- MIC [11]: 64 µg/mL (≈ 98.5 µM)
- MIC [12]: 0.125 µg/mL (≈ 0.192 µM)
- MIC [13]: 16 µg/mL (≈ 24.6 µM)
- MIC [14]: 0.5 µg/mL (≈ 0.77 µM)
- MIC [15]: 0.06 µg/mL (≈ 0.0924 µM)
- MIC [16]: 0.125 µg/mL (≈ 0.192 µM)
- MIC [17]: 8 µg/mL (≈ 12.3 µM)

Compound: CCOC(=O)C(CC1=C(C(=O)O)N2C(=O)[C@@H](NC(=O)/C(=N\OC(C)(C)C(=O)O)c3csc(N)n3)C2SC1)C(=O)c1cc(O)c(O)c(Br)c1 (some centres undefined)
- MIC [1]: 0.125 µg/mL (≈ 0.162 µM)
- MIC [3]: 0.125 µg/mL (≈ 0.162 µM)
- MIC [5]: 0.008 µg/mL (≈ 0.0104 µM)
- MIC [7]: 0.008 µg/mL (≈ 0.0104 µM)
- MIC [8]: 0.008 µg/mL (≈ 0.0104 µM)
- MIC [9]: 0.25 µg/mL (≈ 0.324 µM)
- MIC [10]: 0.25 µg/mL (≈ 0.324 µM)
- MIC [12]: 0.008 µg/mL (≈ 0.0104 µM)
- MIC [13]: 0.5 µg/mL (≈ 0.649 µM)
- MIC [14]: 0.03 µg/mL (≈ 0.0389 µM)
- MIC [16]: 0.008 µg/mL (≈ 0.0104 µM)
- MIC [17]: 0.25 µg/mL (≈ 0.324 µM)

Compound: CC(C)(O/N=C(\C(=O)N[C@@H]1C(=O)N2C(C(=O)O)=C(CNC(=O)c3cc(O)c(O)c(C#N)c3)CSC12)c1csc(N)n1)C(=O)O (some centres undefined)
- MIC [1]: 0.06 µg/mL (≈ 0.0929 µM)
- MIC [3]: 0.06 µg/mL (≈ 0.0929 µM)
- MIC [5]: 0.008 µg/mL (≈ 0.0124 µM)
- MIC [7]: 0.008 µg/mL (≈ 0.0124 µM)
- MIC [8]: 0.008 µg/mL (≈ 0.0124 µM)
- MIC [9]: 8 µg/mL (≈ 12.4 µM)
- MIC [10]: 2 µg/mL (≈ 3.1 µM)
- MIC [12]: 0.008 µg/mL (≈ 0.0124 µM)
- MIC [13]: 4 µg/mL (≈ 6.2 µM)
- MIC [14]: 0.03 µg/mL (≈ 0.0465 µM)
- MIC [16]: 0.06 µg/mL (≈ 0.0929 µM)
- MIC [17]: 2 µg/mL (≈ 3.1 µM)

Compound: C=C(CO/N=C(\C(=O)N[C@@H]1C(=O)N2C(C(=O)O)=C(CNC(=O)c3cc(O)c(O)c(Br)c3)CSC12)c1csc(N)n1)C(=O)O (some centres undefined)
- MIC [1]: 0.06 µg/mL (≈ 0.086 µM)
- MIC [2]: 16 µg/mL (≈ 22.9 µM)
- MIC [3]: 0.03 µg/mL (≈ 0.043 µM)
- MIC [4]: 0.008 µg/mL (≈ 0.0115 µM)
- MIC [5]: 0.008 µg/mL (≈ 0.0115 µM)
- MIC [6]: 0.03 µg/mL (≈ 0.043 µM)
- MIC [7]: 0.008 µg/mL (≈ 0.0115 µM)
- MIC [8]: 0.008 µg/mL (≈ 0.0115 µM)
- MIC [9]: > 32 µg/mL
- MIC [10]: 8 µg/mL (≈ 11.5 µM)
- MIC [11]: 16 µg/mL (≈ 22.9 µM)
- MIC [12]: 0.008 µg/mL (≈ 0.0115 µM)
- MIC [13]: 2 µg/mL (≈ 2.87 µM)
- MIC [14]: 0.06 µg/mL (≈ 0.086 µM)
- MIC [15]: 0.008 µg/mL (≈ 0.0115 µM)
- MIC [16]: 0.05 µg/mL (≈ 0.0717 µM)
- MIC [17]: 16 µg/mL (≈ 22.9 µM)

Compound: CCN(CC1=C(C(=O)O)N2C(=O)[C@@H](NC(=O)/C(=N\OC(C)(C)C(=O)O)c3csc(N)n3)C2SC1)C(=O)c1cc(O)c(O)c(C#N)c1 (some centres undefined)
- MIC [1]: 0.06 µg/mL (≈ 0.0891 µM)
- MIC [3]: 0.25 µg/mL (≈ 0.371 µM)
- MIC [5]: 0.008 µg/mL (≈ 0.0119 µM)
- MIC [7]: 0.008 µg/mL (≈ 0.0119 µM)
- MIC [8]: 0.008 µg/mL (≈ 0.0119 µM)
- MIC [9]: 1 µg/mL (≈ 1.48 µM)
- MIC [10]: 1 µg/mL (≈ 1.48 µM)
- MIC [12]: 0.008 µg/mL (≈ 0.0119 µM)
- MIC [13]: 16 µg/mL (≈ 23.7 µM)
- MIC [14]: 0.015 µg/mL (≈ 0.0223 µM)
- MIC [16]: 0.125 µg/mL (≈ 0.186 µM)
- MIC [17]: 1 µg/mL (≈ 1.48 µM)

Compound: CCO/N=C(\C(=O)N[C@@H]1C(=O)N2C(C(=O)O)=C(CNC(=O)c3ccc(O)c(O)c3)CSC12)c1csc(N)n1 (some centres undefined)
- MIC [1]: 0.5 µg/mL (≈ 0.889 µM)
- MIC [2]: 4 µg/mL (≈ 7.11 µM)
- MIC [3]: 0.5 µg/mL (≈ 0.889 µM)
- MIC [4]: 0.008 µg/mL (≈ 0.0142 µM)
- MIC [5]: 0.06 µg/mL (≈ 0.107 µM)
- MIC [6]: 0.25 µg/mL (≈ 0.444 µM)
- MIC [7]: 0.015 µg/mL (≈ 0.0267 µM)
- MIC [8]: 0.06 µg/mL (≈ 0.107 µM)
- MIC [9]: 128 µg/mL (≈ 228 µM)
- MIC [10]: 64 µg/mL (≈ 114 µM)
- MIC [11]: 2 µg/mL (≈ 3.56 µM)
- MIC [12]: 0.03 µg/mL (≈ 0.0533 µM)
- MIC [13]: 1 µg/mL (≈ 1.78 µM)
- MIC [14]: 0.25 µg/mL (≈ 0.444 µM)
- MIC [15]: 0.06 µg/mL (≈ 0.107 µM)
- MIC [16]: 64 µg/mL (≈ 114 µM)
- MIC [17]: > 128 µg/mL

Compound: Nc1nc(/C(=N/OC(C(=O)O)c2ccccc2)C(=O)N[C@@H]2C(=O)N3C(C(=O)O)=C(CNC(=O)c4cc(O)c(O)c(Br)c4)CSC23)cs1 (some centres undefined)
- MIC [1]: 0.06 µg/mL (≈ 0.0803 µM)
- MIC [2]: 16 µg/mL (≈ 21.4 µM)
- MIC [3]: 0.06 µg/mL (≈ 0.0803 µM)
- MIC [4]: 0.008 µg/mL (≈ 0.0107 µM)
- MIC [5]: 0.015 µg/mL (≈ 0.0201 µM)
- MIC [6]: 0.015 µg/mL (≈ 0.0201 µM)
- MIC [7]: 0.008 µg/mL (≈ 0.0107 µM)
- MIC [8]: 0.008 µg/mL (≈ 0.0107 µM)
- MIC [9]: > 128 µg/mL
- MIC [10]: 2 µg/mL (≈ 2.68 µM)
- MIC [11]: 16 µg/mL (≈ 21.4 µM)
- MIC [12]: 0.008 µg/mL (≈ 0.0107 µM)
- MIC [13]: 0.25 µg/mL (≈ 0.334 µM)
- MIC [14]: 0.03 µg/mL (≈ 0.0401 µM)
- MIC [15]: 0.008 µg/mL (≈ 0.0107 µM)
- MIC [16]: 0.03 µg/mL (≈ 0.0401 µM)
- MIC [17]: 4 µg/mL (≈ 5.35 µM)

From ChEMBL document CHEMBL1126299, “Synthesis and structure-activity relationships of cephalosporins with C-3' catechol-containing residues” (J Med Chem, 1992)
